# Like-named read-outs stand apart in the source and are kept apart here.
# Columns and labels:
# [1] = test system: HBeAg; test: microbe, parasite or virus in culture; assay type: cell-based, HBV; conditions: ACV, concentration not given
# Experimental: (§1) The cultures were passenged by trypsinization every 4 days.
# (§2) HBsAg and HBeAg in the culture medium were determined according to the protocol respectively. The culture medium (200 μl) was absorbed on beads containing antibody to HBsAg/HBeAg in the presence of the conjugate. After overnight incubation, the beads were washed 6 times with […] PBS containing 0.05% Tween-80 and incubated with 200 μl of [^125 I] anti-HBs(Hbe) overnight. The beads were washed 6 times as above. The amounts HBsAg/HBeAg as measure of cpm of [^125 I] labeled immunocomplex was counted on γ-counter.
# [2] = test system: HBsAg; test: microbe, parasite or virus in culture; assay type: cell-based, HBV; conditions: ACV, concentration not given
# Experimental: as §1, §2
# [3] = test system: DHBV; test: anti-DHBV test in ducks (serum DHBV DNA dot blot); assay type: in vivo, DHBV in Peking (Beijing) ducks; conditions: for DHBV DNA, grayness of the dot: 50 mg/kg, X ± SD, n = 7
# Experimental: One-day-old ducklings were infected with a 200 μl intravenous injection of DHBV-positive serum containing 10^11 viral genome equivalents per milliliter. Treatment began when ducklings were 7 days old. A total 89 seven-day-old viraemic ducks were distributed at random into five groups. […] Post-treatment follow-up was carried over a period of 5 days. Blood samples were obtained repectively from the leg vein of all ducks and stored at -70° C. after serum separation, prior to treatment, weekly during the treatment, and for 5 days after cessation of treatment. They were screened for presence of DHBV DNA by dot blot hybridization.
# DHBV DNA in serum was analyzed by molecular hybridization using full length DHBV DNA clones in PB325. The DHBV DNA insert was purified by agarose gel electrophoresis after digestion with EcoRI. The DHBV DNA was radiolabeled with α^32 P-dCTP random oligopriming with Klenow fragment. Dot blot hybridization was carried out by the method of Scotto et al. Briefly, an aliquot (200 μl) serum was spotted onto a nylon membrane (Hybond-N, Amersham International, England) in dot blot manifold and denatured with 0.5 M NaOH--NaCl at room temperature for 30 min. Each spotted sample was neutralized in 1M Tris.HCl-1.5M NaCl (pH8.0). The DNA on the membrane was fixed by heating at 80° C. for 2 h, and prehybridization at 37° C. overnight in 50% formamide, 5×Denhardt's, 6×SSC,[…], 0.5% SDS and 10 mg/ml of calf thymus DNA. Hybridization was initiated by adding DHBV [^32 P] DNA probes at 10^6 cpm/ml at the same prehybridization conditions overnight. The membrane was washed in 3×SSC-0.1% SDS at room temperature, 42° C. and 65° C. for 10 min respectively. After hybridization the membranes were air-dried and exposed for periods of up to 14 days at -70° C. with Kodak film with an enhancer screen. The amount of viral DNA were assayed by both densitometry and image analysis of autoradiographic membranes.
# [4] = test system: lymphocyte proliferation induced by Con A; conditions: 50 mg/kg; for RPI: Normal = 100
# Experimental: mice. Five-wk-old female C57BL/6 mice were used throughout the experiments. All mice were housed in sterile cages in a room supplied with filtrated air. They were given pelleted food and chlorinated water ad libitum.
# Infection with LP-BM5 MuLV. Cell-free supernatants of LP-BM5 MULV were prepared by cocultivating G6 SC-1 clones with normal SC-1 cells for 5 days. Mice were inoculated intraperitoneally with 150 μl of stock solution containing 10^3,4×C plaque-forming units and 10^2,3 Mink-cell focks-forming units per […].
# Then, the spleens were collected. Cell suspensions were prepared by repeated passage of whole spleen through a pipette, the capsule and debris were allowed to settle, and the supernatants containing cells were collected and washed twice in PBS. […] Incubation continued for 16 hr, then cells were collected on filter that was determined by a scintillation counter.
# [5] = target: T1, HBV DNA polymerase (Hepatitis B virus genotype D subtype ayw, UniProt P03156); test: HBV DNA polymerase assay; assay type: biochemical
# T1 construct: HBV DNA polymerase in viral particles; host or cells: viral particles
# T1 sequence (P03156 whole entry): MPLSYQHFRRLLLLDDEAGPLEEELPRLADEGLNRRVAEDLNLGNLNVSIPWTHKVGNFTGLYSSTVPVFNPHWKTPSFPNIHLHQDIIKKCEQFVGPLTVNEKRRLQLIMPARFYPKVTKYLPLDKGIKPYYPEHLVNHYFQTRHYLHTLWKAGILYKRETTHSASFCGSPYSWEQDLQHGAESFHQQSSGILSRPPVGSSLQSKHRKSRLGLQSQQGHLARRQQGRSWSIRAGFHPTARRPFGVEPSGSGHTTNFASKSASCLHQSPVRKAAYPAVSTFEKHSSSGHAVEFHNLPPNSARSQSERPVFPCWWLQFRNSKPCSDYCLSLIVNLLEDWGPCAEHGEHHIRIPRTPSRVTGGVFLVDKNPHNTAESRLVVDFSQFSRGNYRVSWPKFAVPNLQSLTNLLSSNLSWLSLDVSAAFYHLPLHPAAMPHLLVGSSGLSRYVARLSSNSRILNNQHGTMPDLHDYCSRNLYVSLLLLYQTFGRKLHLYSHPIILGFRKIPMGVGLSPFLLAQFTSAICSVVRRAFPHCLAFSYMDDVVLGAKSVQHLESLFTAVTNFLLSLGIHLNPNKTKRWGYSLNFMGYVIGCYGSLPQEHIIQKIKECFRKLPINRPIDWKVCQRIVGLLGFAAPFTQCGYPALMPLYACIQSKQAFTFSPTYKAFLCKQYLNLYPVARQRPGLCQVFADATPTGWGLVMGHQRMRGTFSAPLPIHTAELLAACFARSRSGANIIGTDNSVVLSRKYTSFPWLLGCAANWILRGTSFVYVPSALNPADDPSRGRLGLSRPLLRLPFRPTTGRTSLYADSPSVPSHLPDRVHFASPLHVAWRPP
# Experimental: Assay was performed as described by Hantz (Antiviral Res 4(1984) 187-199) with minor modification. The Reaction mixture consisted of HBV DNA polymerase in viral particles in 200 mmol.l^-1 of Tris-HCl pH 7.6, 200 mmol.l^-1 of NH4 Cl. 50 mmol.l^-1 of MgCl2, 10 mmol.l^-1 of 2-mercaptoethanol, 2% Nonidet P-40 and 300 μmol.l^-1 concentrations of deoxynucleotide triphosphates except for [^3 H]dTTP, which was included in the assay at 20 μci.ml^-1. […] The mixtures were incubated at 37° C. for 4 h prior to spotting on Whatman No.3 filter paper which was washed 4 times with cold 5% trichloroacitic acid, then with ethanol. The HBV DNA polymerase activity as measure of the incorperation of the radionucleotide into the viral DNA was counted in a Recbeta (LKB)scintilation counter.
smiles,measurement,setting,value
"Nc1nc2c(ncn2COCCO)c(=O)[nH]1 [ACV, acyclovir, reference compound]",HBeAg Inhibit rate (%),[1]; day 4,26.22 ± 1.17%
same,HBeAg cpm,[1]; day 4,3910.9 ± 57.6 cpm
same,HBeAg Inhibit rate (%),[1]; day 8,26.75 ± 1.21%
same,HBeAg cpm,[1]; day 8,6101.9 ± 96.17 cpm
same,HBeAg Inhibit rate (%),[1]; day 12,3.71 ± 1.36%
same,HBeAg cpm,[1]; day 12,8194.1 ± 111.5 cpm
same,HBsAg Inhibit rate (%),[2]; day 4,48.20%
same,HBsAg cpm,[2]; day 4,710.1 ± 65.7 cpm
same,HBsAg Inhibit rate (%),[2]; day 8,29.54 ± 5.15%
same,HBsAg cpm,[2]; day 8,870.1 ± 51.1 cpm
same,HBsAg Inhibit rate (%),[2]; day 12,23.22%
same,HBsAg cpm,[2]; day 12,622.5 ± 58.8 cpm
same,"DHBV DNA, grayness of the dot",[3]; P5 (day 5 after withdrawal),9.0 ± 8.6 K Grayness
same,"DHBV DNA, grayness of the dot","[3]; day 0 (before treatment), oral",6.3 ± 4.2 K Grayness
same,"DHBV DNA, grayness of the dot","[3]; day 7, oral",0.1 ± 0.3 K Grayness
same,"DHBV DNA, grayness of the dot","[3]; day 14, oral",0.0 ± 0 K Grayness
same,viraemia returned to a level higher than that of pretreatment by,[3]; day 5 after cessation of treatment,43%
same,DHBV DNA from the sera,"[3]; during the 14 days of therapy, all 7 treated birds",substantial decrease of DHBV DNA from the sera
Cc1cn([C@H]2C[C@H](N=[N+]=[N-])[C@@H](CO)O2)c(=O)[nH]c1=O [AZT],cpm,[4]; Con A (5 μg/ml),53287 ± 2043 cpm
same,RPI,[4]; Con A (5 μg/ml),95.10
same,cpm,[4]; Con A ([…]),33212 ± 2609 cpm
same,RPI,[4]; Con A ([…]),93.21
"O=C(O)P(=O)(O)O [PFA, reference compound]",IC50,[5],184 µM
same,inhibitory effect on HBV DNAp,[5],dose-dependent inhibitory effect
same,cpm,[5]; 1 μg/ml,10267 ± 77 cpm
same,cpm,[5]; 10 μg/ml,5495 ± 218 cpm
same,cpm,[5]; 100 μg/ml,3065 ± 67 cpm
same,cpm,[5]; 1000 μg/ml,2377 ± 329 cpm
same,inhibition at 1 µg/mL,[5]; read-out: Inhibitory rate (%),-5.2 ± 15.3%
same,inhibition at 10 µg/mL,[5]; read-out: Inhibitory rate (%),44.4 ± 2.3%
same,inhibition at 100 µg/mL,[5]; read-out: Inhibitory rate (%),69.7 ± 0.7%
same,inhibition at 1000 µg/mL,[5]; read-out: Inhibitory rate (%),76.8 ± 3.4%

# Reference: US6331565A, “Dicaffeoylquinic acid for treating hepatitis B and the diseases associated with retrovirus, and the new caffeoylquinic acid derivatives” (Institute of Radiation Medicine Academy of Military Medical …, priority 1996, dated 2001)
